Test results reported in patent publication US6365610B1, “Ozonide compounds with inhibitory activity for urokinase production and angiogenesis” (Taiho Pharmaceutical Company Ltd., priority 1998, dated 2002).

Experiments:
[1] = test system: fertilized egg chorioallantonic membrane (CAM); test: Angiogenesis inhibition test, fertilized egg chorioallantonic membrane (CAM) method; type: in vivo, hen; details: scored points over all eggs
Protocol: This experiment was conducted substantially according to the fertilized egg chorioallantonic membrane (abbreviated as CAM) method described in ADVANCES IN CANCER RESEARCH, vol. 43, 175-203. The fertilized hen's eggs (Plymouth Rock breed×white leghorn breed) used were purchased from Gotoh Brooder (Gifu Prefecture) and incubated in an incubator (product of Tokyo Rikagaku Kikai Co., Ltd.) at a humidity of 70% and 37° C.
The air chamber of each egg was located by illuminating the egg and the egg shell was injured with a rotary file at two locations, i.e., an upper portion of the air chamber and a side portion of the egg on day 3, taking the day when the incubation was started as day 0. About 3 ml of the albumen was aspirated through the side hole with a syringe for removal, and the air was removed from the upper portion with a dropper. With the side hole sealed with OpSite (product of Smith and Nephew Ltd.), the air chamber upper portion was injured in the form of a 1 cm square, the egg shell and the egg membrane were removed from the square area, and the opening was sealed with OpSite. The seal was removed from the opening on day 5 to form a window, which was sealed with Tegaderm (product of 3M Health Care Ltd.). A disk is made from 20 μl of 1% gelatin with drying, 20 μl of 0.5% aqueous methyl cellulose solution containing an active component of the invention was applied to the disk to form a superposed layer, and the resulting disk was dried in a clean bench. The Tegaderm seal was removed, the disk was placed at rest on the CAM, and the window was sealed again. The shell was removed from an upper portion of the egg on day 7, and 1 ml of 20% Intralipos (product of Green Cross Co., Ltd.) was injected into the egg under the CAM. The CAM was observed under a surgical microscope and photographed at a magnification of ×4 to ×8.
The effect to inhibit angiogenesis was determined substantially according to the method described in Cancer Lett., 48(2), 157-62(1989). More specifically, a vessel-free region, when found over a distance of at least 2 mm around the methyl cellulose layer, was interpreted as indicating angiogenesis inhibitory activity (+), weak inhibitory activity of less than 2 mm as indicating quasi-positive (±), and no vessel-free region within 2 mm as indicating negative (−). At least six fertilized eggs were used for testing. The angiogenesis inhibition ratio was determined by evaluating (+) as 1 point, (±) as 0.5 point and (−) as 0 point, and calculating the ratio of the points each compound scored for all the eggs used.

urokinase = test: Urokinase production inhibition test (HT-1080 culture supernatant urokinase activity); type: cell-based, Human; details: HT-1080 cells
Protocol: This test was conducted substantially according to the method described in Biochem. Biophys. Res. Commun., 142(1), 147-54(1987) as will be described in detail below.
Human fibrosarcoma cells HT-1080 were purchased from American Type Culture Collection (product of Rockville). HT-1080 cells were cultured at 37° C. in a 5% CO2 incubator in RPMI-1640 medium (product of Nissui Seiyaku Co., Ltd.) containing 10% (v/v) of […] bovine fetal serum (product of ATLANTA Biological). The cells were suspended in 0.2% trypsin 2 mM EDTA solution for use in the experiment.
The suspension of HT-1080 cells as adjusted to 1×10^5 cells/ml was placed onto a 96-well flat-bottomed incubation plate dividedly in 200 μl quantities (2×10^4 cells/well) and incubated at 37° C. for 4 hours. The supernatant was thereafter removed and replaced with the same amount of serum-free medium [hereinafter referred to as “serum(−)”], followed by incubation for 20 hours. Subsequently, serum(−) was replaced with 199 μl of serum-containing medium [hereinafter referred to as “serum(+)”], and 1 μl of a sample solution containing an active component of the invention and prepared by dissolving the component in dimethyl sulfoxide (DMSO) was added to serum(+) in the incubation plate, followed by further incubation at 37° C. for 24 hours. The resulting supernatant was removed under suction, serum(−) was added in 200 μl quantities, followed by incubation again for 24 hours, and the supernatant of the culture was collected.
To determine the conditions for measuring urokinase activity in the supernatant, the reaction time and the concentration of a synthetic substrate were investigated using recombinant human urokinase (product of CHROMOGENIX AB) and VLKpA (valylleucyllysyl p-nitroamide, product of Sigma Chemical CO.) serving as the […] at a constant concentration (2.8 μg/ml) of plasminogen. When the culture supernatant of HT-1080 cells was checked for urokinase activity preliminarily, the activity was about 0.02 IU/μl. An urokinase solution with activity of 0.02 IU/μl was reacted with the synthetic substrate of varying concentrations.
A 85 μl portion of the culture supernatant and 15 μl of substrate reaction mixture [427 mM Tris-HCl (pH 8.0), 27 mM EDTA (pH 8.0), 1.5 mM VLKpA, 125 μg/ml plasminogen (product of CHROMOGENIX AB] were mixed together in a 96-well incubation plate and reacted at 37° C. for 30 minutes, and the reaction mixture was checked for absorbance at 405 nm using an immunoreader. The urokinase production inhibition ratio was calculated from the following equation.
Inhibition ratio (%)=(1−T/C)×100
wherein T is the average absorbance of a group given the sample, and C is the average absorbance of a control group.

[2] = test system: Lewis lung cancer strain (LLC); type: in vivo
Protocol: The test animals used were 7-week-old female C57BL/6 mice (Nippon Charles River) weighing 17 to 20 g. A subcutaneous tumor (1.0×10^5 cells) of Lewis lung cancer strain (LLC) was transplanted in the mice, and a suspension of a test compound in an aqueous solution of 3% ethanol and 5% gum arabic was given on day 3 and thereafter. The test compound used was compound 6, which was intraperitoneally administered at a dose of 15 mg/kg every other day. On the other hand, 100 μl of 3% ethanol-5% gum arabic aqueous solution was intraperitoneally given to a control group. The mice were checked for body weight and the major and minor diameters of the primary tumor every other day, and an estimated tumor volume (V) was determined by calculating (minor diameter)^2×(major diameter)÷2. The tumor growth inhibition ratio (%) was calculated from the estimated tumor volume of day 24 after the transplantation using the following equation.
Tumor growth inhibition ratio (%)=(1−Tv/Cv)×100
wherein Tv is the tumor volume (mm^3) of the group given the test compound, and Cv is the tumor volume (mm^3) of the control group.
The tumor was excised from each mouse, fixed with acetone, and checked for the number of lesions metastasized to the lungs to calculate the lung metastasis inhibition ratio (%) from the following equation.
Lung metastasis inhibition ratio (%)=(1−T/C)×100
wherein T is the number of metastatic nodules in the group given the test compound, and C is the number of metastatic nodules in the control group.

[3] = 15 mg/kg intraperitoneally every other day, LLC-bearing mice

Row | SMILES | angiogenesis inhibition ratio (%) ([1]; dosage 40 μg/egg) | melting point [°C] | urokinase inhibition ratio (%) (urokinase; concentration 3.13 μg/ml) | also measured
1 | CC12OOC(c3ccccc3)(O1)c1ccccc1C2c1ccccc1 (stereo not drawn) [Compound 1, 4,5-dihydro-1,5-diphenyl-4-methyl-1,4-epoxy-1H-2,3-benzodioxepin] | 75 | 178 to 180 | 90.5 | angiogenesis inhibition ratio (%) ([1]; dosage 10 μg/egg): 67%; urokinase inhibition ratio (%) (urokinase; concentration 1.56 μg/ml): 90.0%
2 | c1ccc(C2c3ccccc3C3OC2(c2ccccc2)ON3c2ccccc2)cc1 (stereo not drawn) [Compound 8, 1,2,4,5-tetrahydro-2,4,5-triphenyl-1,4-epoxy-3,2-benzoxazepin] | 56 | 155 to 156 |  | urokinase inhibition ratio (%) (urokinase; concentration 25.0 μg/ml): 82.2%; urokinase inhibition ratio (%) (urokinase; concentration 50.0 μg/ml): 93.4%
3 | c1ccc(C23OOC(O2)c2cccc4cccc3c24)cc1 (stereo not drawn) [Compound 6, 1-phenyl-1,4-epoxy-1H,4H-naphtho[1,8-de][1,2]dioxepin] | 100 |  |  | urokinase inhibition ratio (%) (urokinase; concentration 50.0 μg/ml): 90.1%; tumor growth inhibition ratio ([2]; 15 mg/kg intraperitoneally every other day from day 3, estimated tumor volume of day 24, subcutaneous LLC in mice): 59.2%; lung metastasis inhibition ratio ([2]; 15 mg/kg intraperitoneally every other day from day 3, number of metastatic nodules in lungs, LLC in mice): 75.8%; death in the mice [2, 3]: no death; reduction in body weight [2, 3]: little or no reduction in body weight
4 | CC1c2ccccc2C2(c3ccccc3)OOC1O2 (stereo not drawn) [Compound 9, 4,5-dihydro-5-methyl-1-phenyl-1,4-epoxy-1H-2,3-benzodioxepin] |  | 127 to 128 |  | 
5 | Cc1ccc(C23OOC(c4ccccc4)(O2)C(C)c2ccccc23)cc1 (stereo not drawn) [Compound 2, 4,5-dihydro-5-methyl-4-phenyl-1-p-tolyl-1,4-epoxy-1H-2,3-benzodioxepin] |  | 139 to 141 |  | urokinase inhibition ratio (%) (urokinase; concentration 12.5 μg/ml): 88.3%
6 | c1ccc(C2c3ccccc3C3(c4ccccc4)OOC2(c2ccccc2)O3)cc1 (stereo not drawn) [Compound 10, 4,5-dihydro-1,4,5-triphenyl-1,4-epoxy-1H-2,3-benzodioxepin] |  | 171 to 173 | 94.1 | 
7 | c1ccc(C23Cc4ccccc4C(c4ccccc4)(OO2)O3)cc1 (stereo not drawn) [Compound 11, 4,5-dihydro-1,4-diphenyl-1,4-epoxy-1H-2,3-benzodioxepin] |  | 119 | 91.4 | 
8 | COc1ccc(C23OOC(c4ccccc4)(O2)C(C)c2ccccc23)cc1 (stereo not drawn) [Compound 3, 4,5-dihydro-1-p-anisyl-5-methyl-4-phenyl-1,4-epoxy-1H-2,3-benzodioxepin] | 63 | 135 to 136 | 93.8 | urokinase inhibition ratio (%) (urokinase; concentration 6.25 μg/ml): 94.4%
9 | CC(C)C1c2ccccc2C2(c3ccccc3)OOC1(c1ccccc1)O2 (stereo not drawn) [Compound 4, 4,5-dihydro-1,4-diphenyl-5-isopropyl-1,4-epoxy-1H-2,3-benzodioxepin] |  | 130 to 132 |  | 
